Assay results from paper PMC11181328 (Journal of Medicinal Chemistry, 2024).

Assays:
[1] = molecular target: MOR (Mus musculus, UniProt P42866); test: [35S]-GTPγS functional assay, MOR; type: biochemical; parameters: expressed in transfected cells; membrane homogenate; details: for EC50: mMOR-CHO membranes; for [35S]-GTPγS functional activity MOR Emax (%): percent of DAMGO full agonist control; for Emax: read-out: [35S]-GTPγS functional activity MOR Emax (%)
[2] = molecular target: hERG (Kv11.1) (Homo sapiens, UniProt Q12809); test: Automated patch-clamp hERG inhibition assay in CHO-hERG cells
hERG (Kv11.1), sequence (Q12809 whole entry): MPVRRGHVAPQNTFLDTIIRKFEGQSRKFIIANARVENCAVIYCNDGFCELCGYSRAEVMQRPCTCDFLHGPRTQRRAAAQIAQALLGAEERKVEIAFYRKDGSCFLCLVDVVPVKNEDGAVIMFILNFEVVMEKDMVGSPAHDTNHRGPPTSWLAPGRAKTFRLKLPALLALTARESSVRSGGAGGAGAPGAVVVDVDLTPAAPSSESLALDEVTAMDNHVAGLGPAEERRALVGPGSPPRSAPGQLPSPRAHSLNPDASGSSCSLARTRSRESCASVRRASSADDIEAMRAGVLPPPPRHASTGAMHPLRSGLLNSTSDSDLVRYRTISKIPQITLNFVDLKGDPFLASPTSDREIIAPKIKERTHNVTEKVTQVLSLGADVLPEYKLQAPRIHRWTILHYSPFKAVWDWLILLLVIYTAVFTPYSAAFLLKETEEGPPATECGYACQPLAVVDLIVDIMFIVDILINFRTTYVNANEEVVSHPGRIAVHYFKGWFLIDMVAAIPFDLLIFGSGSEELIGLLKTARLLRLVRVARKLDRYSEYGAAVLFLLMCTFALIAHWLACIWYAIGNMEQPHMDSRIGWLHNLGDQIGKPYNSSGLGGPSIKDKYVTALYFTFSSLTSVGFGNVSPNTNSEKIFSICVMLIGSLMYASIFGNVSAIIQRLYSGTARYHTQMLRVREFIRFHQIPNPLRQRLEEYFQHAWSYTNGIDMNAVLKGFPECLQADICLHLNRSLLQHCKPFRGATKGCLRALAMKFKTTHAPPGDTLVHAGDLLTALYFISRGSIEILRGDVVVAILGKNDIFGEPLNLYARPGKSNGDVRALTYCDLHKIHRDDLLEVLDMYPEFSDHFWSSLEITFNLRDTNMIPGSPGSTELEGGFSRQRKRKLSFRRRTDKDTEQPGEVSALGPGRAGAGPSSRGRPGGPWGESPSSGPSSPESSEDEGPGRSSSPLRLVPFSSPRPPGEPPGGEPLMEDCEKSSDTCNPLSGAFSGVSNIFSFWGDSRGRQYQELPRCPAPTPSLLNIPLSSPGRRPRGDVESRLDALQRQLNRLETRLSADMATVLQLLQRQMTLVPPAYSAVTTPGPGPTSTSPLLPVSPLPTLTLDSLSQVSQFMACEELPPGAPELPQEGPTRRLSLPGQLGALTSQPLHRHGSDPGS

[3] = test system: male Swiss Webster mice; test: Locomotor activity assay; type: in vivo, mouse; details: s.c., 30 min session; for average speed by time versus vehicle: Figure 6F–H
Method: This hypolocomotion could result in false positives in assays of evoked antinociception such as WWTI.[115] Thus, a locomotor activity assay was utilized to assess this end point in accordance with previous studies.[28] In brief, the day prior to testing, mice were placed in the open field chamber for acclimation. On the test day, they were injected with compounds 21, 23, NLF, or vehicle and immediately placed back into the open field chamber. Photo beam breaks then recorded the mouse’s locomotion over a 30 min test period.
Six open field activity chambers (Med Associates, St. Albans, VT) were used in the locomotor activity study. Each chamber is located inside a sound-attenuating cubicle (Med Associates) and is equipped with a ventilation system. The interior of the chamber consists of a 27 × 27 cm plexiglass enclosure wired with photobeam cells and connected to a computer console that monitors the activity of the animal.
The day before the experiment, mice were acclimated to the activity chambers for a period of 30 min. On the day of the experiment, mice were administered vehicle or test compound s.c., placed into the activity chambers immediately and activity was monitored and recorded for a period of 30 min.
The primary dependent measures are total (1) distance traveled (cm), (2) ambulatory counts, (3) vertical counts, and (4) average speed (cm/s) within the 30 min session. Data are shown as mean ± SEM. Data were compared using one-way or two-way ANOVA as appropriate and a significant ANOVA was followed by a Dunnet’s post hoc test as appropriate. Statistical significance was defined as p < 0.05.

[4] = molecular target: hERG (Homo sapiens, UniProt Q12809); test: Automated patch-clamp hERG inhibition assay in CHO-hERG cells
hERG, sequence (Q12809 whole entry): as above

MOR, sequence (P42866 whole entry, looked up): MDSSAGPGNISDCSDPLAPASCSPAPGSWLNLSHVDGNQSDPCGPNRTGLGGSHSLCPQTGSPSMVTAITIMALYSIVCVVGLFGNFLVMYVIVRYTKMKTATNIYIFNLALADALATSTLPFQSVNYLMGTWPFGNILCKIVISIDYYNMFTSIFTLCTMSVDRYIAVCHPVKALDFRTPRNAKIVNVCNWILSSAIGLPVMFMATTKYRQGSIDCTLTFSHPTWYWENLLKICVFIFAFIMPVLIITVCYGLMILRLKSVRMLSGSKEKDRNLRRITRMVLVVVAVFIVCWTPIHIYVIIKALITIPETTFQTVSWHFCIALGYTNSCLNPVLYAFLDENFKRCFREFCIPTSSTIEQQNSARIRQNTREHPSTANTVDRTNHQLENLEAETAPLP

Row | Structure (SMILES) | EC50 [1] [nM] | [35S]-GTPγS functional activity MOR Emax (%) [1] | Emax [1] [%] | IC50 [2] [nM] | locomotor activity [3] | average speed by time versus vehicle [3] | IC50 [4] [nM]
1 | CN(C(=O)/C=C/c1ccco1)[C@H]1CC[C@@]2(O)[C@H]3Cc4ccc(O)c5c4[C@@]2(CCN3CC2CC2)[C@H]1O5.Cl [Compound 21, 17-Cyclopropylmethyl-3,14β-dihydroxy-4,5α-epoxy-6α-[(2E)-3′-(furan-2″-yl)-N-methylprop-2-enamido]morphinan Hydrochloride] | 0.58 ± 0.17 | low efficacy MOR partial agonism | 19.7 ± 0.7 | 2510 | significant decrease in vertical counts at the largest dose tested | did not result in average speeds significantly different from vehicle at any time point | 
2 | CN(C(=O)/C=C/c1ccco1)[C@@H]1CC[C@@]2(O)[C@H]3Cc4ccc(O)c5c4[C@@]2(CCN3CC2CC2)[C@H]1O5.Cl [Compound 23, 17-Cyclopropylmethyl-3,14β-dihydroxy-4,5α-epoxy-6β-[(2E)-3′-(furan-2″-yl)-N-methylprop-2-enamido]morphinan Hydrochloride] | 5.31 ± 0.53 | low efficacy MOR partial agonism | 14.2 ± 1.77 |  | dose-dependent decrease in locomotor activity across all end points | significantly different from vehicle | 1090
